Test results from patent US4015002A, “1-Aryl-2-oxo-2,4,5,6,7,7a-hexahydro-indoles, salts, pharmaceutical compositions and methods of use” (Laboratoire Roger Bellon, priority 1974, dated 1977).
Values after ≈ are worked out from the molar mass of the structure shown. Read-outs that look alike come from different tables or passages of the source.

Key:
isolated auricle = experiment: Cardiac action on the isolated auricle (Trevan preparation): amplitude of contractions; settings: arrows for diminution/increase are drawings, 0 = inactive, read-out: Action on the isolated auricle: minimum concentration producing a variation of 20% in amplitude of contractions
Method: (§1) This was examined according to known methods in the isolated auricle (Trevan preparation) and in the isolated heart of a rabbit (Langendorf preparation).
Cardiac action of the compounds in question was evaluated according to the amplitude of contractions of the isolated auricle.

[1] = system: isolated heart of the rabbit; experiment: Cardiac action on the isolated heart of a rabbit (Langendorf preparation); settings: for EC20: Oryctolagus cuniculus, direction arrow is a drawing
Method: as §1
In the Langendorf preparation, the action of the compounds was determined from three parameters; the amplitude of contractions, coronary delivery, and rhythm. […] The results are indicated in Table 1; an arrow ↓ indicates a diminution, and an arrow ↑ an augmentation.

[2] = Toxicity, intravenous in the mouse; settings: in vivo, i.v.
Method: The toxicities of the various compound were determined intravenously in the mouse.

anaethestized dog = experiment: Action on femoral delivery, aortal pressure and cardiac rhythm in the anaesthetized dog; format: in vivo; settings: for Aortal pressure, maximum variation in 30 minutes / Cardiac Rhythm, maximum variation in 30 minutes / Femoral Delivery, maximum variation in 30 minutes: i.v. perfusion over 5 min, dose 1/10 of mouse LD50, percent based on initial values; for Aortal pressure (in words) / Cardiac frequency (in words) / Vasodilator action (in words): anaesthetized dog, i.v.; for Vasodilator action (in words): 1/10 of mouse LD50
Method: This was investigated in an anaethestized dog, the compounds under test being administered by intraveneous perfusion (over 5 minutes). The various compounds under test were compared by administering all of them at a dose per kilogram corresponding to 1/10 of the mouse LD50 (I.V.).
Simultaneously were measured: variations of femoral delivery, aortal pressure, and cardiac rhythm. Table II indicates the maximum variations of these different parameters observed over the 30 minutes which followed administration of various compounds. These variations are expressed in percent based on the initial values.

[3] = read-out: Amplitude of contractions: concentration producing a variation of 20%
[4] = read-out: Rhythm: concentration producing a variation of 20%
[5] = read-out: Coronary delivery: concentration producing a variation of 20%

CC(C)N(CCOc1ccc(N2C(=O)C=C3CCCCC32)cc1)C(C)C (centres unmarked) [Example 7, 1-[4-(2Diisopropylaminoethoxy)-phenyl]-2-oxo-2,4,5,6,7,7a-hexahydro-indole]
EC20 (isolated auricle): 10 mg/L (≈ 28 µM)
EC20 [1, 3]: 1 mg/L (≈ 2.8 µM)
EC20 [1, 4]: 20 mg/L (≈ 56.1 µM)
LD50 [2]: 85 mg/kg
Aortal pressure, maximum variation in 30 minutes (anaethestized dog): 0%
Cardiac Rhythm, maximum variation in 30 minutes (anaethestized dog): 0%

CCN(CC)CCOc1ccc(N2C(=O)C=C3CCCCC32)cc1Cl (centres unmarked) [Example 16, 1-[3-Chloro-4-(2-diethylaminoethoxy)-phenyl]-2-oxo-2,4,5,6,7,7a-hexahydro-indole]
EC20 (isolated auricle): 5 mg/L (≈ 13.8 µM)
EC20 [1, 3]: 1 mg/L (≈ 2.76 µM)
EC20 [1, 4]: 1 mg/L (≈ 2.76 µM)
LD50 [2]: 22 mg/kg
Aortal pressure, maximum variation in 30 minutes (anaethestized dog): 0%

O=C1C=C2CCCCC2N1c1ccc(OCCN2CCCCC2)c(Cl)c1 (centres unmarked) [Example 14, 1-[3-chloro-4-(2-piperidinoethoxy)-phenyl]-2-oxo-2,4,5,6,7,7a-hexahydro-indole]
EC20 (isolated auricle): 10 mg/L (≈ 26.7 µM)
EC20 [1, 3]: 1 mg/L (≈ 2.67 µM)
EC20 [1, 4]: 20 mg/L (≈ 53.3 µM)
LD50 [2]: 25 mg/kg
Aortal pressure (in words) (anaethestized dog): without modifying aortal pressure
Cardiac frequency (in words) (anaethestized dog): without modifying aortal pressure or cardiac frequency
Vasodilator action (in words) (anaethestized dog): clearly vasodilators
Aortal pressure, maximum variation in 30 minutes (anaethestized dog): 0%

CN(C)CCOc1ccc(N2C(=O)C=C3CCCCC32)cc1 (centres unmarked) [Example 5, 1-[4-(2-Dimethylaminoethoxy)-phenyl]-2-oxo-2,4,5,6,7,7a-hexahydro-indole]
EC20 (isolated auricle): 50 mg/L (≈ 166 µM)
EC20 [1, 3]: 1 mg/L (≈ 3.33 µM)
EC20 [1, 5]: 20 mg/L (≈ 66.6 µM)
EC20 [1, 4]: 10 mg/L (≈ 33.3 µM)
LD50 [2]: 90 mg/kg
Aortal pressure, maximum variation in 30 minutes (anaethestized dog): 0%
Femoral Delivery, maximum variation in 30 minutes (anaethestized dog): 0%

CCN(CC)CCOc1ccc(N2C(=O)C(c3ccccc3)=C3CCCCC32)cc1 (centres unmarked) [Example 20, 1-[4-(2-diethylaminoethoxy)-phenyl]-2-oxo-3-phenyl-2,4,5,6,7,7a-hexahydro-indole]
EC20 (isolated auricle): 2 mg/L (≈ 4.94 µM)
Coronary delivery (in words) [1]: augmented
EC20 [1, 3]: 1 mg/L (≈ 2.47 µM)
EC20 [1, 5]: 5 mg/L (≈ 12.4 µM)
EC20 [1, 4]: 5 mg/L (≈ 12.4 µM)
LD50 [2]: 38 mg/kg
Aortal pressure, maximum variation in 30 minutes (anaethestized dog): 0%
Femoral Delivery, maximum variation in 30 minutes (anaethestized dog): 0%

CCN(CC)CCOc1ccc(N2C(=O)C=C3CCCCC32)cc1 (centres unmarked) [Example 1, 1-[4-(2-diethylaminoethoxy)-phenyl] -2-oxo-2,4,5,6,7,7a-hexahydro-indole]
EC20 (isolated auricle): 20 mg/L (≈ 60.9 µM)
EC20 [1, 3]: 5 mg/L (≈ 15.2 µM)
LD50 [2]: 150 mg/kg
Aortal pressure, maximum variation in 30 minutes (anaethestized dog): 0%
Cardiac Rhythm, maximum variation in 30 minutes (anaethestized dog): 0%

O=C1C=C2CCCCC2N1c1cccc(OCCN2CCOCC2)c1 (centres unmarked) [Example 9, 1-[3-(2-Morpholinoethoxy)-phenyl]-2-oxo-2,4,5,6,7,7a-hexahydro-indole]
EC20 (isolated auricle): 50 mg/L (≈ 146 µM)
Coronary delivery (in words) [1]: augmented
EC20 [1, 3]: 1 mg/L (≈ 2.92 µM)
EC20 [1, 5]: 20 mg/L (≈ 58.4 µM)
LD50 [2]: 170 mg/kg
Aortal pressure, maximum variation in 30 minutes (anaethestized dog): 0%

CCN(CC)CCOc1cccc(N2C(=O)C=C3CCCCC32)c1 (centres unmarked) [Example 11, 1-[3-(2-Diethylaminoethoxy)-phenyl]-2-oxo-2,4,5,6,7,7a-hexahydro-indole]
EC20 (isolated auricle): 10 mg/L (≈ 30.4 µM)
EC20 [1, 3]: 2 mg/L (≈ 6.09 µM)
EC20 [1, 4]: 10 mg/L (≈ 30.4 µM)
LD50 [2]: 90 mg/kg
Aortal pressure (in words) (anaethestized dog): without modifying aortal pressure
Cardiac frequency (in words) (anaethestized dog): without modifying aortal pressure or cardiac frequency
Vasodilator action (in words) (anaethestized dog): clearly vasodilators
Aortal pressure, maximum variation in 30 minutes (anaethestized dog): 0%

O=C1C=C2CCCCC2N1c1ccc(OCCN2CCOCC2)c(Cl)c1 (centres unmarked) [Example 17, 1-[3-Chloro-4-(2-morpholinoethoxy)-phenyl]-2-oxo-2,4,5,6,7,7a-hexahydro-indole]
Coronary delivery (in words) [1]: augmented
EC20 [1, 3]: 1 mg/L (≈ 2.65 µM)
EC20 [1, 5]: 50 mg/L (≈ 133 µM)
EC20 [1, 4]: 20 mg/L (≈ 53.1 µM)
LD50 [2]: 120 mg/kg
Aortal pressure, maximum variation in 30 minutes (anaethestized dog): 0%

CN(C)CCCOc1ccc(N2C(=O)C=C3CCCCC32)cc1 (centres unmarked) [Example 8, 1-[4-(3-Dimethylaminopropoxy)-phenyl]-2-oxo-2,4,5,6,7,7 a-hexahydro-indole]
EC20 (isolated auricle): 10 mg/L (≈ 31.8 µM)
EC20 [1, 3]: 1 mg/L (≈ 3.18 µM)
EC20 [1, 4]: 5 mg/L (≈ 15.9 µM)
LD50 [2]: 85 mg/kg
Aortal pressure, maximum variation in 30 minutes (anaethestized dog): 0%

CN(C)CCOc1cccc(N2C(=O)C=C3CCCCC32)c1 (centres unmarked) [Example 12, 1-[3-(2-Dimethylaminoethoxy)-phenyl]-2-oxo-2,4,5,6,7,7a-hexahydro-indole]
EC20 (isolated auricle): 10 mg/L (≈ 33.3 µM)
EC20 [1, 3]: 1 mg/L (≈ 3.33 µM)
EC20 [1, 4]: 5 mg/L (≈ 16.6 µM)
LD50 [2]: 27.5 mg/kg
Aortal pressure (in words) (anaethestized dog): hypotension
Cardiac frequency (in words) (anaethestized dog): tachycardia
Vasodilator action (in words) (anaethestized dog): vasodilators

CC(C)N(CCOc1ccc(N2C(=O)C=C3CCCCC32)cc1Cl)C(C)C (centres unmarked) [Example 18, 1-[3-Chloro-4-(2-diisopropylaminoethoxy)-phenyl]-2-oxo-2,4,5,6,7,7a-hexahydro-indole]
EC20 (isolated auricle): 5 mg/L (≈ 12.8 µM)
EC20 [1, 3]: 1 mg/L (≈ 2.56 µM)
LD50 [2]: 150 mg/kg
Aortal pressure (in words) (anaethestized dog): hypertensives

CC(C)N(CCOc1cccc(N2C(=O)C=C3CCCCC32)c1)C(C)C (centres unmarked) [Example 13, 1-[3-(2-Diisopropylaminoethoxy)-phenyl]-2-oxo-2,4,5,6,7,7a-hexahydro-indole]
EC20 (isolated auricle): 5 mg/L (≈ 14 µM)
EC20 [1, 3]: 1 mg/L (≈ 2.8 µM)
EC20 [1, 4]: 20 mg/L (≈ 56.1 µM)
LD50 [2]: 55 mg/kg
Aortal pressure (in words) (anaethestized dog): hypertensives

CN(C)CCOc1ccc(N2C(=O)C(c3ccccc3)=C3CCCCC32)cc1 (centres unmarked) [Example 19, 1-[4-(2-Dimethylaminoethoxy)-phenyl]-2-oxo-3-phenyl-2,4,5,6,7,7a-hexahydro-indole]
EC20 (isolated auricle): 20 mg/L (≈ 53.1 µM)
Coronary delivery (in words) [1]: augmented
EC20 [1, 3]: 1 mg/L (≈ 2.66 µM)
EC20 [1, 5]: 5 mg/L (≈ 13.3 µM)
EC20 [1, 4]: 10 mg/L (≈ 26.6 µM)
LD50 [2]: 10 mg/kg
Femoral Delivery, maximum variation in 30 minutes (anaethestized dog): 0%

O=C1C(c2ccccc2)=C2CCCCC2N1c1ccc(OCCN2CCOCC2)cc1 (centres unmarked) [Example 21, 1-[4-(2-morpholinoethoxy)-phenyl]-2-oxo-3-phenyl-2,4,5,6,7,7a-hexahydro-indole]
EC20 (isolated auricle): 20 mg/L (≈ 47.8 µM)
Coronary delivery (in words) [1]: augmented
EC20 [1, 3]: 1 mg/L (≈ 2.39 µM)
EC20 [1, 5]: 2 mg/L (≈ 4.78 µM)
EC20 [1, 4]: 10 mg/L (≈ 23.9 µM)
LD50 [2]: 55 mg/kg
Aortal pressure, maximum variation in 30 minutes (anaethestized dog): 0%
Cardiac Rhythm, maximum variation in 30 minutes (anaethestized dog): 0%

O=C1C=C2CCCCC2N1c1ccc(OCCN2CCCCC2)cc1 (centres unmarked) [Example 6, 1-[4-(2-Piperidinoethoxy)-phenyl]-2-oxo-2,4,5,6,7,7a-hexahydro-indole]
EC20 (isolated auricle): 10 mg/L (≈ 29.4 µM)
EC20 [1, 3]: 1 mg/L (≈ 2.94 µM)
EC20 [1, 5]: 20 mg/L (≈ 58.7 µM)
EC20 [1, 4]: 20 mg/L (≈ 58.7 µM)
LD50 [2]: 40 mg/kg
Aortal pressure, maximum variation in 30 minutes (anaethestized dog): 0%
Femoral Delivery, maximum variation in 30 minutes (anaethestized dog): 0%

O=C1C=C2CCCCC2N1c1cccc(OCCN2CCCCC2)c1 (centres unmarked) [Example 10, 1-[3-(2-piperidinoethoxy)-phenyl]-2-oxo-2,4,5,6,7,7a-hexahydro-indole]
EC20 (isolated auricle): 5 mg/L (≈ 14.7 µM)
EC20 [1, 3]: 1 mg/L (≈ 2.94 µM)
EC20 [1, 5]: 20 mg/L (≈ 58.7 µM)
EC20 [1, 4]: 20 mg/L (≈ 58.7 µM)
LD50 [2]: 130 mg/kg
Aortal pressure (in words) (anaethestized dog): hypotension
Cardiac frequency (in words) (anaethestized dog): tachycardia
Vasodilator action (in words) (anaethestized dog): vasodilators
